Experimental findings from US10093678B2, “Azaspiro derivatives as TRPM8 antagonists” (RaQualia Pharma Inc., priority 2014, dated 2018) are described below.

In general, IC50 refers to the concentration at which inhibition is half-maximal.

Structures are written as SMILES.

The target in this experiment is T1, human TRPM8 (Homo sapiens, UniProt Q7Z2W7).
T1 construct: expressed in transfected cells; host or cells: HEK293
T1 sequence (Q7Z2W7 whole entry): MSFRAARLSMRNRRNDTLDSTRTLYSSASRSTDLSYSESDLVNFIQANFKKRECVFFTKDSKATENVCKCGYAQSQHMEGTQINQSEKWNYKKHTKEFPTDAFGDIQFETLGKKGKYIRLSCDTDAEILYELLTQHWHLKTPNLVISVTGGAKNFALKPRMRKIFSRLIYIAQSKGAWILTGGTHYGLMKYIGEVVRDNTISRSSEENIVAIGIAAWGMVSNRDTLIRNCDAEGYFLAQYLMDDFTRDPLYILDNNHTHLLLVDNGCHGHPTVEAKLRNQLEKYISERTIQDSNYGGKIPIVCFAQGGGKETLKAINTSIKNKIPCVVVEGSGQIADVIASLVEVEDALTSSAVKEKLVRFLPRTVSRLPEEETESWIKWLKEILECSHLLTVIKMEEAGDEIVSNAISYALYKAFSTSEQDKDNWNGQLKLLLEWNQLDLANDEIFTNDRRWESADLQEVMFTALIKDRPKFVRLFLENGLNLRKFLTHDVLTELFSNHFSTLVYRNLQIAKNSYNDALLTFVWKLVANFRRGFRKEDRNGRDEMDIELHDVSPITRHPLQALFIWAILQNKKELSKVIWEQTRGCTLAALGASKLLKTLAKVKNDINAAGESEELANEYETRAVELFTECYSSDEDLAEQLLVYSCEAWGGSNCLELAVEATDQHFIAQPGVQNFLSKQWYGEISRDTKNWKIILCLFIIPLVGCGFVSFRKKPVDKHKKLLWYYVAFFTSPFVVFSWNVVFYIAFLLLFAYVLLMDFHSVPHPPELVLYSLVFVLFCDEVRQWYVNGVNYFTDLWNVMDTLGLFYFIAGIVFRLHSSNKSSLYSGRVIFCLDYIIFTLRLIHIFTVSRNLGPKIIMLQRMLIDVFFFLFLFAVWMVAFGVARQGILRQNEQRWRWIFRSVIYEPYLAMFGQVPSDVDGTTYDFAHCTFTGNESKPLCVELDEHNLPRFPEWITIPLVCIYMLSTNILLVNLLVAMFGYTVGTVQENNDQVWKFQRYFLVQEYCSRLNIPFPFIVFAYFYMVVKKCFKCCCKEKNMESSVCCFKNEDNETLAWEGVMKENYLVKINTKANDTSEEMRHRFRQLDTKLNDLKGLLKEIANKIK
In words: Menthol-induced Ca2+ influx in HEK293 cells stably expressing human TRPM8. In kind it is cell-based. The following applies: 30 microM menthol-induced Ca2+ influx, read-out: IC50 against TRPM8. The method in brief: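 HEK293 cells stably expressing human TRPM8 were loaded with Fluo4-AM for 1 h at room temperature, preincubated 5 min with compound, then challenged with 30 microM menthol. Calcium rise was read by FDSS imaging. IC50 came from 11-point curves using duplicate-well means.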
As to `Nc1cnccc1-c1ccc(C(=O)CN2C(=O)NC3(CCC(F)(F)CC3)C2=O)cc1` [Example 6-113], the IC50 is less than 500 nM.
With `COCc1ccccc1-c1ccc(C(=O)CN2C(=O)NC3(CCC(F)(F)CC3)C2=O)cc1` [Example 6-114], the half-inhibitory concentration (IC50) was less than 100 nM.
As for `O=C(CN1C(=O)NC2(CCC(F)(F)CC2)C1=O)c1ccc(-c2cnc3cccnn23)cc1` [Example 6-116], the half-maximal inhibitory concentration (IC50) is less than 100 nM.
Under `Nc1nccnc1-c1ccc(C(=O)CN2C(=O)NC3(CCC(F)(F)CC3)C2=O)cc1` [Example 6-117] stands less than 500 nM; under `O=C(CN1C(=O)NC2(CCC(F)(F)CC2)C1=O)c1ccc(Cc2ccccn2)cc1` [Example 6-119], less than 500 nM.
Under `N#Cc1ccccc1Cc1ccc(C(=O)CN2C(=O)NC3(CCC(F)(F)CC3)C2=O)cc1` [Example 6-120] stands less than 500 nM.
`O=C(CN1C(=O)NC2(CCC(F)(F)CC2)C1=O)c1ccc(-c2ccncc2Cl)cc1` [Example 6-122]: the IC50 was less than 100 nM.
For `Cc1ncccc1-c1ccc(C(=O)CN2C(=O)NC3(CCCCC3)C2=O)cc1` [Example 7-1], the IC50 was less than 10 nM.
Under `Cc1ccncc1-c1ccc(C(=O)CN2C(=O)NC3(CCCCC3)C2=O)cc1` [Example 7-2] stands less than 100 nM; under `Cc1ccsc1-c1ccc(C(=O)CN2C(=O)NC3(CCCCC3)C2=O)cc1` [Example 7-3], less than 100 nM; under `Cc1cnc(C)c(-c2ccc(C(=O)CN3C(=O)NC4(CCCCC4)C3=O)cc2)n1` [Example 7-4], less than 100 nM.
For `N#Cc1cccc(-c2ccc(C(=O)CN3C(=O)NC4(CCCCC4)C3=O)cc2)n1` [Example 7-5], the IC50 is less than 100 nM.
Under `Cn1nccc1-c1ccc(C(=O)CN2C(=O)NC3(CCCCC3)C2=O)cc1` [Example 7-6] stands less than 100 nM.
Then `O=C(CN1C(=O)NC2(CCCCC2)C1=O)c1ccc(-c2ncccc2CO)cc1` [Example 7-7], with less than 100 nM.
Then `N#Cc1ncccc1-c1ccc(C(=O)CN2C(=O)NC3(CCCCC3)C2=O)cc1` [Example 7-8], with less than 100 nM; and `O=C(CN1C(=O)NC2(CCCCC2)C1=O)c1ccc(-c2cnccc2CO)cc1` [Example 7-9], with less than 100 nM; and `O=C(CN1C(=O)NC2(CCCCC2)C1=O)c1ccc(-c2nccnc2CO)cc1` [Example 7-10], with less than 100 nM.
On to `O=C(CN1C(=O)NC2(CCCCC2)C1=O)c1ccc(-c2cccnc2CO)cc1` [Example 7-11], for which the IC50 is less than 100 nM.
Then `N#Cc1cccnc1-c1ccc(C(=O)CN2C(=O)NC3(CCCCC3)C2=O)cc1` [Example 7-12], with less than 100 nM; and `Nc1ncccc1-c1ccc(C(=O)CN2C(=O)NC3(CCCCC3)C2=O)cc1` [Example 7-13], with less than 100 nM; and `Cc1nccnc1-c1ccc(C(=O)CN2C(=O)NC3(CCCCC3)C2=O)cc1` [Example 7-14], with less than 100 nM.
Under `N#Cc1nccnc1-c1ccc(C(=O)CN2CC3(CCC(F)(F)CC3)OC2=O)cc1` [Example 7-15] stands less than 500 nM.
Then `O=C(CN1CC2(CCC(F)(F)CC2)OC1=O)c1ccc(-c2cnccc2CO)cc1` [Example 7-16], with less than 500 nM; and `Cc1cnc(C)c(-c2ccc(C(=O)CN3CC4(CCC(F)(F)CC4)OC3=O)cc2)n1` [Example 7-17], with less than 500 nM; and `O=C(CN1CC2(CCC(F)(F)CC2)OC1=O)c1ccc(-c2cccnc2CO)cc1` [Example 7-18], with less than 500 nM.
Turning to `Cc1nccnc1-c1ccc(C(=O)CN2CC3(CCC(F)(F)CC3)OC2=O)cc1` [Example 7-19], the IC50 was less than 500 nM.
Regarding `N#Cc1ncccc1-c1ccc(C(=O)CN2CC3(CCC(F)(F)CC3)OC2=O)cc1` [Example 7-20], the IC50 was less than 500 nM.
Then `Cc1ccnnc1-c1ccc(C(=O)CN2C(=O)OC3(CCC(F)(F)CC3)C2=O)cc1` [Example 7-21], with less than 100 nM; and `O=C(CN1C(=O)OC2(CCC(F)(F)CC2)C1=O)c1ccc(-c2nccc3ccncc23)cc1` [Example 7-22], with less than 10 nM.
As to `Cc1ccnnc1-c1ccc(C(=O)CN2C(=O)NC3(CCCCC3)C2=O)cc1` [Example 7-23], the IC50 is less than 500 nM.
Under `O=C(CN1C(=O)OC2(CCC(F)(F)CC2)C1=O)c1ccc(-c2ccccn2)cc1` [Example 7-24] stands less than 100 nM; under `N#Cc1cccc(-c2ccc(C(=O)CN3C(=O)OC4(CCC(F)(F)CC4)C3=O)cc2)n1` [Example 7-25], less than 100 nM; under `O=C(CN1C(=O)OC2(CCC(F)(F)CC2)C1=O)c1ccc(-c2ncccn2)cc1` [Example 7-26], less than 100 nM.
Consider `N#Cc1nccnc1-c1ccc(C(=O)CN2C(=O)NC3(CCC(F)(F)CC3)C2=O)cc1F` [Example 8-1], for which the IC50 was less than 100 nM.
Under `O=C(CN1C(=O)NC2(CCC(F)(F)CC2)C1=O)c1ccc(-c2cnccc2CO)c(F)c1` [Example 8-2] stands less than 100 nM.
For the molecule `Cc1nccnc1-c1ccc(C(=O)CN2C(=O)NC3(CCC(F)(F)CC3)C2=O)cc1F` [Example 8-3], the IC50 is less than 100 nM.
Under `N#Cc1ncccc1-c1ccc(C(=O)CN2C(=O)NC3(CCC(F)(F)CC3)C2=O)cc1F` [Example 8-4] stands less than 100 nM.
`O=C(CN1C(=O)NC2(CCC(F)(F)CC2)C1=O)c1ccc(-c2cccnc2CO)c(F)c1` [Example 8-5]: the 50% inhibitory concentration (IC50) is less than 100 nM.
`Nc1ccnnc1-c1ccc(C(=O)CN2C(=O)NC3(CCC(F)(F)CC3)C2=O)cc1F` [Example 8-6]: the IC50 is less than 500 nM.
On to `Cc1ccnnc1-c1ccc(C(=O)CN2C(=O)NC3(CCC(F)(F)CC3)C2=O)c(F)c1` [Example 8-7], for which the IC50 was less than 100 nM.
Then `N#Cc1nccnc1-c1ccc(C(=O)CN2C(=O)NC3(CCC(F)(F)CC3)C2=O)c(F)c1` [Example 8-8], with less than 100 nM; and `O=C(CN1C(=O)NC2(CCC(F)(F)CC2)C1=O)c1ccc(-c2nccnc2CO)cc1F` [Example 8-9], with less than 100 nM.
Under `Cc1ccncc1-c1ccc(C(=O)CN2C(=O)NC3(CCCCC3)C2=O)cn1` [Example 9-1] stands less than 10 nM; under `Cc1ccccc1-c1ccc(C(=O)CN2C(=O)NC3(CCCCC3)C2=O)cn1` [Example 9-2], less than 10 nM.
As for `COc1ccccc1-c1ccc(C(=O)CN2C(=O)NC3(CCCCC3)C2=O)cn1` [Example 9-3], the IC50 is less than 10 nM.
Then `O=C(CN1C(=O)NC2(CCCCC2)C1=O)c1ccc(-c2ccccc2F)nc1` [Example 9-4], with less than 100 nM; and `O=C(CN1C(=O)NC2(CCCCC2)C1=O)c1ccc(-c2ccccc2CO)nc1` [Example 9-5], with less than 100 nM.
Under `O=C(CN1C(=O)NC2(CCCCC2)C1=O)c1ccc(-c2ccccc2C(F)(F)F)nc1` [Example 9-6] stands less than 100 nM.
`Cc1ncccc1-c1ccc(C(=O)CN2C(=O)NC3(CCCCC3)C2=O)cn1` [Example 9-7]: the IC50 is less than 100 nM.
Under `N#Cc1ccccc1-c1ccc(C(=O)CN2C(=O)NC3(CCCCC3)C2=O)cn1` [Example 9-8] stands less than 100 nM.
On to `N#Cc1cccc(-c2ccc(C(=O)CN3C(=O)NC4(CCCCC4)C3=O)cn2)c1` [Example 9-9], for which the IC50 was less than 100 nM.
Regarding `O=C(CN1C(=O)NC2(CCC(F)(F)CC2)C1=O)c1ccc(-c2cccc3[nH]ccc23)nc1` [Example 9-10], the IC50 was less than 10 nM.
On to `Cc1ccccc1-c1ccc(C(=O)CN2C(=O)NC3(CCC(F)(F)CC3)C2=O)cn1` [Example 9-11], for which the IC50 was less than 10 nM.
